Values of other authors as cited in patent US12203859B2, “Device for detecting contamination with photosynthesis inhibitor and method for detecting contamination with photosynthesis inhibitor” (National Institute for Environmental Studies, priority 2019, dated 2025).

System: marine phytoplankton
Conditions: pesticides that directly inhibit photosynthesis of plants

SMILES | fluorescence quantum efficiency of marine phytoplankton
CN(C)C(=O)Nc1ccc(Cl)c(Cl)c1 [Diuron] | decreases
CSc1nc(NC2CC2)nc(NC(C)(C)C)n1 [Irgarol] | decreases
